Assays:
[1] = Dissociation of chelates in aq. 6.0M HCl at 80° C. (acid decomplexation kinetic inertness) (Chart 17); assay type: physicochemical
[2] = Dissociation of chelates in aq. 1.0M HCl at 80° C. (acid decomplexation kinetic inertness) (Chart 18); assay type: physicochemical
[3] = Dissociation of chelates in aq. 0.1M HCl at 80° C. (acid decomplexation kinetic inertness) (Chart 19); assay type: physicochemical
[4] = Dissociation of chelates in aq. 0.1M HCl at RT (acid decomplexation kinetic inertness) (Chart 20); assay type: physicochemical
[5] = Alkali metal dependent formation of 1,5-cz-Lig and 1,4-cz-Lig isomers from Lig at pH 10.2 (Chart 14); assay type: physicochemical; conditions: B: 1 day at 80° C., Borate/(M^I)2CO3 buffer pH 10.2; for conversion to 1,4-cz-Lig isomer, Li^I / conversion to 1,5-cz-Lig isomer, Li^I: visible analyte free precipitate
[6] = Formation of 1,5-cz-[M(Lig)] from Lig and M^III ions (metal dependent click-zip) (Charts 4, 5); assay type: physicochemical; conditions: MOPS/NaOH buffer pH 7.0, TD728, TD827 in 50% i-PrOH; for conversion to 1,5-cz-[M(Lig)], Y^III: TD714 sum of two diastereoisomers
[7] = Formation of 1,5-cz-[Ln(Lig)] from Lig and Ln^III ions (metal dependent click-zip), MOPS/NaOH buffer pH 7.0, analytical HPLC (Charts 1, 2); conditions: MOPS/NaOH buffer pH 7.0

O=C1C[N@@]2CC[N@]3CC[N@@](CC[N@](CC2)Cc2cccc(n2)-c2cnnn2Cc2cc(-c4ccccc4)cc(n2)C3)CC(=O)[O][Lu][O]1 [TD522]
fraction of intact chelate ([1]; 1 month): 98% | fraction of intact chelate ([1]; 1 week): 99% | fraction of intact chelate ([1]; 1 hour): 100% | fraction of intact chelate ([1]; 1 day): 100% | fraction of intact chelate ([2]; 1 month): 100% | fraction of intact chelate ([2]; 1 week): 100% | fraction of intact chelate ([2]; 1 hour): 100% | fraction of intact chelate ([2]; 1 day): 100% | fraction of intact chelate ([3]; 1 month): 100% | fraction of intact chelate ([3]; 1 week): 100% | fraction of intact chelate ([3]; 1 hour): 100% | fraction of intact chelate ([3]; 1 day): 100% | fraction of intact chelate ([4]; 1 month): 100% | fraction of intact chelate ([4]; 1 week): 100% | fraction of intact chelate ([4]; 1 hour): 100% | fraction of intact chelate ([4]; 1 day): 100%

C#Cc1cccc(CN2CCN(CP(=O)(O)O)CCN(Cc3cccc(CN=[N+]=[N-])n3)CCN(CP(=O)(O)O)CC2)n1 [TD581]
conversion to 1,4-cz-Lig isomer, Cs^I [5]: 31% | conversion to 1,4-cz-Lig isomer, K^I [5]: 32% | conversion to 1,4-cz-Lig isomer, Na^I [5]: 26% | conversion to 1,4-cz-Lig isomer, Rb^I [5]: 32% | conversion to 1,5-cz-Lig isomer, Cs^I [5]: 6% | conversion to 1,5-cz-Lig isomer, K^I [5]: 7% | conversion to 1,5-cz-Lig isomer, Na^I [5]: 25% | conversion to 1,5-cz-Lig isomer, Rb^I [5]: 7% | conversion to 1,4-cz-Lig isomer, Li^I [5]: 19% | conversion to 1,5-cz-Lig isomer, Li^I [5]: 10%

C#Cc1cccc(CN2CCN(CP(=O)(O)OCC)CCN(Cc3cccc(CN=[N+]=[N-])n3)CCN(CP(=O)(O)OCC)CC2)n1 [TD582]
conversion to 1,5-cz-[M(Lig)], Sc^III ([6]; 1 week at 80° C.): 0% | conversion to 1,5-cz-[M(Lig)], Y^III ([6]; 1 week at 80° C.): 68% | conversion to 1,5-cz-[M(Lig)], Sc^III ([6]; 1 hour at 80° C.): 0% | conversion to 1,5-cz-[M(Lig)], Y^III ([6]; 1 hour at 80° C.): 11% | conversion to 1,4-cz-Lig isomer, Cs^I [5]: 26% | conversion to 1,4-cz-Lig isomer, K^I [5]: 25% | conversion to 1,4-cz-Lig isomer, Na^I [5]: 2% | conversion to 1,4-cz-Lig isomer, Rb^I [5]: 25% | conversion to 1,5-cz-Lig isomer, Cs^I [5]: 10% | conversion to 1,5-cz-Lig isomer, K^I [5]: 11% | conversion to 1,5-cz-Lig isomer, Na^I [5]: 69% | conversion to 1,5-cz-Lig isomer, Rb^I [5]: 10% | conversion to 1,4-cz-Lig isomer, Li^I [5]: 3% | conversion to 1,5-cz-Lig isomer, Li^I [5]: 53% | conversion to 1,5-cz-[Ln(Lig)], Ce^III ([7]; after 1 week at 80° C.): 0% | conversion to 1,5-cz-[Ln(Lig)], Ce^III ([7]; after 1 hour at 80° C.): 0% | conversion to 1,5-cz-[Ln(Lig)], Dy^III ([7]; after 1 week at 80° C.): 85% | conversion to 1,5-cz-[Ln(Lig)], Dy^III ([7]; after 1 hour at 80° C.): 18% | conversion to 1,5-cz-[Ln(Lig)], Er^III ([7]; after 1 week at 80° C.): 74% | conversion to 1,5-cz-[Ln(Lig)], Er^III ([7]; after 1 hour at 80° C.): 15% | conversion to 1,5-cz-[Ln(Lig)], Eu^III ([7]; after 1 week at 80° C.): 87% | conversion to 1,5-cz-[Ln(Lig)], Eu^III ([7]; after 1 hour at 80° C.): 14% | conversion to 1,5-cz-[Ln(Lig)], Gd^III ([7]; after 1 week at 80° C.): 86% | conversion to 1,5-cz-[Ln(Lig)], Gd^III ([7]; after 1 hour at 80° C.): 15% | conversion to 1,5-cz-[Ln(Lig)], Ho^III ([7]; after 1 week at 80° C.): 79% | conversion to 1,5-cz-[Ln(Lig)], Ho^III ([7]; after 1 hour at 80° C.): 16% | conversion to 1,5-cz-[Ln(Lig)], La^III ([7]; after 1 week at 80° C.): 0% | conversion to 1,5-cz-[Ln(Lig)], La^III ([7]; after 1 hour at 80° C.): 0% | conversion to 1,5-cz-[Ln(Lig)], Lu^III ([7]; after 1 week at 80° C.): 26% | conversion to 1,5-cz-[Ln(Lig)], Lu^III ([7]; after 1 hour at 80° C.): 5% | conversion to 1,5-cz-[Ln(Lig)], Nd^III ([7]; after 1 week at 80° C.): 60% | conversion to 1,5-cz-[Ln(Lig)], Nd^III ([7]; after 1 hour at 80° C.): 6% | conversion to 1,5-cz-[Ln(Lig)], Pr^III ([7]; after 1 week at 80° C.): 17% | conversion to 1,5-cz-[Ln(Lig)], Pr^III ([7]; after 1 hour at 80° C.): 5% | conversion to 1,5-cz-[Ln(Lig)], Sm^III ([7]; after 1 week at 80° C.): 86% | conversion to 1,5-cz-[Ln(Lig)], Sm^III ([7]; after 1 hour at 80° C.): 12% | conversion to 1,5-cz-[Ln(Lig)], Tb^III ([7]; after 1 week at 80° C.): 82% | conversion to 1,5-cz-[Ln(Lig)], Tb^III ([7]; after 1 hour at 80° C.): 18% | conversion to 1,5-cz-[Ln(Lig)], Tm^III ([7]; after 1 week at 80° C.): 68% | conversion to 1,5-cz-[Ln(Lig)], Tm^III ([7]; after 1 hour at 80° C.): 14% | conversion to 1,5-cz-[Ln(Lig)], Yb^III ([7]; after 1 week at 80° C.): 59% | conversion to 1,5-cz-[Ln(Lig)], Yb^III ([7]; after 1 hour at 80° C.): 12%

O=C1C[N@@]2CC[N@]3CC[N@@](CC[N@](CC2)Cc2cccc(n2)-c2cnnn2Cc2cc(-c4ccccc4)cc(n2)C3)CC(=O)[O][Eu][O]1 [TD599]
fraction of intact chelate ([1]; 1 month): 0% | fraction of intact chelate ([1]; 1 week): 0% | fraction of intact chelate ([1]; 1 hour): 0% | fraction of intact chelate ([1]; 1 day): 0% | fraction of intact chelate ([2]; 1 month): 0% | fraction of intact chelate ([2]; 1 week): 0% | fraction of intact chelate ([2]; 1 hour): 92% | fraction of intact chelate ([2]; 1 day): 10% | fraction of intact chelate ([3]; 1 month): 21% | fraction of intact chelate ([3]; 1 week): 83% | fraction of intact chelate ([3]; 1 hour): 100% | fraction of intact chelate ([3]; 1 day): 97% | fraction of intact chelate ([4]; 1 month): 100% | fraction of intact chelate ([4]; 1 week): 100% | fraction of intact chelate ([4]; 1 hour): 100% | fraction of intact chelate ([4]; 1 day): 100%

O=C1C[N@@]2CC[N@]3CC[N@@](CC[N@](CC2)Cc2cccc(n2)-c2cnnn2Cc2cc(-c4ccccc4)cc(n2)C3)CC(=O)[O][Tb][O]1 [TD600]
fraction of intact chelate ([1]; 1 month): 0% | fraction of intact chelate ([1]; 1 week): 0% | fraction of intact chelate ([1]; 1 hour): 72% | fraction of intact chelate ([1]; 1 day): 0% | fraction of intact chelate ([2]; 1 month): 23% | fraction of intact chelate ([2]; 1 week): 78% | fraction of intact chelate ([2]; 1 hour): 99% | fraction of intact chelate ([2]; 1 day): 96% | fraction of intact chelate ([3]; 1 month): 99% | fraction of intact chelate ([3]; 1 week): 99% | fraction of intact chelate ([3]; 1 hour): 100% | fraction of intact chelate ([3]; 1 day): 100% | fraction of intact chelate ([4]; 1 month): 100% | fraction of intact chelate ([4]; 1 week): 100% | fraction of intact chelate ([4]; 1 hour): 100% | fraction of intact chelate ([4]; 1 day): 100%

Reference: patent publication US20250147039A1, “Compounds for complexation of rare earth elements and/or s-, p-, d- block metals, their coordination compounds, peptide conjugates, method of their preparation and use thereof” (USTAV ORGANICKE CHEMIE A BIOCHEMIE AV CR V.V.I., priority 2021, published 2025)
